Data on three molecules can be found in patent US20220362386A1, “LIQUID COMPOSITIONS COMPRISING A LEVODOPA AMINO ACID CONJUGATE AND USES THEREOF” (NeuroDerm, Ltd., priority 2019, published 2022).

The nature of series [1]: Comparative formulation tests, physical stability (Tables 32a-c, 33a-c). The series is classed as physicochemical. The note with it: LDAA TFA salt/CD formulation; for Physical stability (visual), Day 1: Day 1, room temperature; for Physical stability (visual), Day 2: Day 2, room temperature; for Physical stability (visual), Day 5: Day 5, room temperature after two days at 2-8° C.; for Physical stability (visual), Day 6: Day 6, room temperature after two days at 2-8° C.; for Physical stability (visual), Day 40: Day 40, returned to 2-8° C. The procedure:
It is noted that the formulations were similarly to those above; however, CD was added, and further, the amounts of the antioxidants, i.e., ascorbic acid and NAC, were added at three different concentrations, as detailed in Tables 32a-c below. Further, an additional amount of arginine was added to the solution in order to adjust the pH to a physiologically acceptable pH.
The formulations prepared as detailed in Tables 32a, 32b and 32c were (a) held at room temperature for two days; (b) transferred to a refrigerator (2-8° C.) for two days; and (c) transferred from the refrigerator to room temperature for an additional two days, during which they were assessed again for precipitants. The formulations were then returned to the refrigerator (2-8° C.) and assessed for precipitants on day 40. The physical stability of each formulation was assessed on the first two days and again on the last two days. The physical stability of the formulations was assessed visually. A clear solution was considered to be stable, while a solution comprising precipitants was considered to be physically unstable. The stability results of the formulations of Tables 32a, 32b and 32c are detailed in Tables 33a, 33b and 33c, respectively.

The test system of a further series is human plasma. Nature of the series: Protein binding, solid phase extraction (SPE) method. The series is classed as in vitro ADME. The note with it: 1.0E−05M; SPE sample preparation. The method, then: (§1) A solid phase extraction (SPE) method was used to prepare samples for several compounds in the plasma protein binding assay. The following SPE protocols were followed:
(§2) Sorbent: Waters Oasis MCX 96—well MicroElution Plate—Cat #186001830BA Sample: 200 μL of plasma spiked at 10 μM with test compound. Sample was diluted 1:1 with 4% phosphoric acid in water and mixed for 15 minutes 1) Place Oasis plate on vacuum manifold and set vacuum to 5″ Hg; 2) Condition with 200 μL methanol; 3) Equilibrate with 200 μL water; 4) Load dilute plasma sample; 5) Wash with 200 μL 2% formic acid in water; 6) Wash with 400 μL methanol; and 7) Elute with 100 μL 5% NH4OH in methanol.
(§3) Sorbent: Waters Oasis MAX 96-well MicroElution plate—Cat #186001829 Sample: 200 μL of plasma spiked at 10 μM with test compound. Sample was diluted 1:1 with 4% phosphoric acid in water and mixed for 15 minutes 1) Place Oasis plate on vacuum manifold and set vacuum to 5″ Hg; 2) Condition with 200 μL methanol; 3) Equilibrate with 200 μL water; 4) Load dilute plasma sample; 5) Wash with 200 μL 5% NH4OH in water; 6) Wash with 400 μL methanol; and 7) Elute with 100 μL 2% formic acid in methanol.

Test in series [2]: as above
The series is classed as in vitro ADME, human. Conditions: human, human plasma, 1.0E−05M, SPE sample preparation. The method, then:
as §1, §2, §3

A short description of series [3]: Human blood stability test. The note with it: slope of the percentage decrease of remaining compound; substrate 10 μM; 0-60 minutes. On the set-up: key: slope of % decrease of remaining compound over time; higher = faster metabolism. The series is classed as in vitro ADME. The procedure: The stability of several LDAA compounds in human blood was tested. The substrate concentration was 10 μM and the incubation time 0, 5, 15, 30 and 60 minutes.
The results are described in Table 19, wherein the results describe the Ke, i.e., the slope of the percentage decrease of the remaining amount of the compound, measured at each of the above time points, such that the higher the Ke the faster the metabolism.

A short description of the next series: in vitro. Conditions: human. The method, then:
Caco-2 cells are human intestinal epithelial cells derived from a colorectal adenocarcinoma.
The assays are performed in both the apical to basolateral (A-B) and the B-A direction. The test compound is prepared at 10 μM in HBSS-HEPES (pH 7.4) with a final DMSO concentration of 1%. The working solution is centrifuged, and the supernatant is added to the donor side. The assay plate is incubated at 37° C. with gentle shaking for 60 min or 40 min for the A-B or B-A assay, respectively. For Pgp substrate assessment, the assays are run with and without 100 μM verapamil on both the A and B sides. For BCRP substrate assessment, the assays are run with and without 10 μM Ko143 on both the A and B sides. For MRP2 substrate assessment, the assays are run with and without 100 μM MK571 on both the A and B sides. Samples are aliquoted from the donor side at time zero and the end point, and from the receiver side at the end point.
Propranolol (highly permeable), labetalol (moderately permeable), ranitidine (poorly permeable), and colchicine (P-glycoprotein substrate), estrone-3-sulfate (BCRP substrate), or CDCF (MRP2 substrate) are included in each assay.
Samples are analyzed by HPLC-MS/MS using selected reaction monitoring. The HPLC system consists of a binary LC pump with an autosampler, a C-18 column, and a gradient. Conditions may be adjusted when necessary.
Fluorescein permeability is assessed in the A-B direction at pH 7.4 on both sides after the permeability assay with the test compound. The cell monolayer with a fluorescein permeability of less than 1.5×10−6 cm/s is considered intact.
The apparent permeability coefficient (Papp) of the test compound and its recovery are calculated as follows: […]
A is the surface area of the cell monolayer (0.11 cm^2). C is concentration of the test compound, expressed as peak area. D denotes donor and R is receiver. 0, mid, and end denote time zero, mid-point, and end of the incubation. Δt is the incubation time. V is the volume of the donor or receiver.
The permeability capabilities of the several LDAA compounds, in their TFA salt form, were determined using the Caco-2 B-A method.

Setting [4] is: NB 144-15, ~0.1% Asc + ~0.1% NAC.
The mark [5] stands for this setting: NB 144-18, ~0.4% Asc + ~0.4% NAC.
Setting [6] is: NB 144-20, ~0.8% Asc + ~0.8% NAC.
[7] abbreviates: Caco-2, pH 7.4, Percent Recovery 1st.
The mark [8] stands for this setting: Caco-2, pH 7.4, Percent Recovery 2nd.
Setting [9] is: Caco-2, pH 7.4, Percent Recovery Mean.
[10] abbreviates: Caco-2, pH 7.4, Permeability 1st.
[11] abbreviates: Caco-2, pH 7.4, Permeability 2nd.
The mark [12] stands for this setting: Caco-2, pH 7.4, Permeability Mean.

Structures can show the parent of a compound that is named as a salt. Where two headings read alike, the source gives them in different places. Non-standard residues stand in square brackets, D forms with d. Residues, ends and D or L forms follow the SMILES beside them. Dopa = N[C@@H](Cc1ccc(O)c(O)c1)C(=O)O

In general, Papp B→A refers to how fast a substance crosses the layer from the basolateral side. As for `N=C(N)NCCC[C@H](NC(=O)[C@@H](N)Cc1ccc(O)c(O)c1)C(=O)O` [LD-Arg TFA salt, Levodopa Arginine TFA Salt], the “Physical stability (visual), Day 1” value in series [1] (setting [4]), in series [1] (setting [5]) and in series [1] (setting [6]) was “Stable” throughout. For the same molecule, the “Physical stability (visual), Day 2” value in series [1] (setting [4]), in series [1] (setting [5]) and in series [1] (setting [6]) was “Stable” throughout. The “Physical stability (visual), Day 5” value in series [1] (setting [4]), in series [1] (setting [5]) and in series [1] (setting [6]) was “Stable” each time. Moreover, the “Physical stability (visual), Day 6” value in series [1] (setting [4]), in series [1] (setting [5]) and in series [1] (setting [6]) was “Stable” each time. Also, the “Physical stability (visual), Day 40” value in series [1] (setting [4]), in series [1] (setting [5]) and in series [1] (setting [6]) was “Stable” in each case. In the series with human plasma, the “% Protein Bound 1st” value is 91.5%. Further, the “% Protein Bound 2nd” value in the series with human plasma is 91.2%. The “% Protein Bound Mean” value with human plasma was 91%. The recovery at 10 μM in series [2] (read-out: % Recovery 1st), in series [2] (read-out: % Recovery 2nd) and in series [2] (read-out: % Recovery Mean) was 79% each time. In series [3], the Ke came out at 0.0919. In addition, the values for the recovery at 40 min, 10 μM in the series “in vitro” (setting [7]), in “in vitro” (setting [8]) and in the series “in vitro” (setting [9]) were 82%, 89% and 85%, respectively. The Papp B→A at 40 min, 10 μM in “in vitro” (setting [10]) is 0.03 ×10⁻⁶ cm/s; in “in vitro” (setting [11]), 0.02 ×10⁻⁶ cm/s; in the series “in vitro” (setting [12]), less than 0.03 ×10⁻⁶ cm/s.

`N[C@@H](CSC[C@H](NC(=O)[C@@H](N)Cc1ccc(O)c(O)c1)C(=O)O)C(=O)O` (single isomer, unassigned; peak 2) [LD-LA2 TFA salt, Levodopa Lanthionine Peak 2 TFA Salt]: the “% Protein Bound 1st” value in the series with human plasma is 18.7%. Also, in the series on human plasma, the “% Protein Bound Mean” value amounted to 18.7%. Moreover, the recovery at 10 μM in series [2] (read-out: % Recovery 1st) was 39%; in series [2] (read-out: % Recovery 2nd), 46%; in series [2] (read-out: % Recovery Mean), 43%. In series [3], the Ke is given as 0.0128. Also, the recovery at 40 min, 10 μM in “in vitro” (setting [7]) turned out to be 79%; in “in vitro” (setting [8]), 69%; in the series “in vitro” (setting [9]), 74%. For the same molecule, the basolateral-to-apical permeability (Papp B→A) at 40 min, 10 μM in the series “in vitro” (setting [10]) came out at 13 ×10⁻⁶ cm/s; in the series “in vitro” (setting [11]), 13.6 ×10⁻⁶ cm/s; in the series “in vitro” (setting [12]) it was 13.3 ×10⁻⁶ cm/s.

For `N[C@@H](Cc1ccc(O)c(O)c1)C(=O)N[C@@H](CC(=O)O)C(=O)O` [LD-Asp TFA salt, Levodopa Aspartic Acid] (H-[Dopa]-Asp-OH), in series [1] (setting [4]), the “Physical stability (visual), Day 1” value is listed as “Stable”; the “Physical stability (visual), Day 2” value is reported as “Stable”; the “Physical stability (visual), Day 5” value is recorded as “Stable”; the “Physical stability (visual), Day 6” value is “Stable”. In addition, the “Physical stability (visual), Day 40” value in series [1] (setting [4]) was “Stable”. Also, in series [1] (setting [5]), the “Physical stability (visual), Day 1” value is given as “Stable”; the “Physical stability (visual), Day 2” value was “Stable”; the “Physical stability (visual), Day 5” value is “Stable”; the “Physical stability (visual), Day 6” value is “Stable”. Besides, the “Physical stability (visual), Day 40” value in series [1] (setting [5]) was “Stable”. Also, in series [1] (setting [6]), the “Physical stability (visual), Day 1” value is “Stable”; the “Physical stability (visual), Day 2” value was “Stable”; the “Physical stability (visual), Day 5” value was “Stable”; the “Physical stability (visual), Day 6” value was “Stable”. Also, the “Physical stability (visual), Day 40” value in series [1] (setting [6]) is recorded as “Stable”. In addition, in the series with human plasma, the “% Protein Bound 1st” value is reported as 47.8%, the “% Protein Bound 2nd” value was found to be 34.1% and the “% Protein Bound Mean” value turned out to be 41%. Further, in series [2] (read-out: % Recovery 1st), the recovery at 10 μM stood at 55%. For the same molecule, in series [2] (read-out: % Recovery 2nd), the recovery at 10 μM was 64%. In addition, the recovery at 10 μM in series [2] (read-out: % Recovery Mean) came to 60%. This molecule displayed a Ke in series [3] of 0.0014.
